The target of assay [1] is Human LATS2 catalytic domain (Homo sapiens (Human), UniProt Q9NRM7). Put plainly: LATS2 High ATP HTRF Assay. The assay is classed as biochemical. To be noted: no asterisk: LATS2 High ATP HTRF Assay, 5000 μM ATP, 0.05 nM LATS2. The essentials:
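LATS2 catalytic domain (G553-V1088) co-purified with Mob1b, 0.05 nM, pre-incubated 10 min with compound, then 5000 μM ATP and 0.5 μM STK S1 peptide in HEPES pH7.2 for 2 h at room temperature. HTRF 665/620 nm read; IC50 by four-parameter fit, Ki via Cheng-Prusoff with ATP Km 105 μM.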
On the technique in general: In TR-FRET formats the signal depends on donor and acceptor labels being close together.

Assay [2] concerns TAZ nuclear translocation in SW1990 cells. Put plainly: TAZ Nuclear Translocation Assay. Type of assay: cell-based. To be noted: Homo sapiens, 4 hours. The method, then: The SW1990 cells (ATCC, CRL2172) were seeded at 5000 cells/well by adding 30 μL/well of cells in RPMI1640, 10% FBS, 2 mM glutamine culture media to a 384-well plate (Greiner 781091). The cells were incubated overnight at 37° C. Next day, test compounds were directly added to the cells using the Echo Liquid Handler (Labcyte), incubate at 37° C. for 4 hours. The cells were fixed with 4% paraformaldehyde and incubate for 20 minutes at room temperature. After washing three times with 100 μL PBS, 0.5% Triton X-100 was added to permeabilize the cells, incubate at room temperature for 5 minutes, following by washing the cells three times with PBS. 3% BSA was added to the cells, incubate for one hour at room temperature, following by washing three times with PBS. 50 μL of 1:750 diluted rabbit Anti-TAZ (Cell signaling D316D) in 3% BSA was added to the cells, incubate at 4° C. overnight. Next day, after washing the cells three times with PBS, 50 μL of 1:1250 diluted donkey anti-Rabbit, Alexa Fluor 488 (Invitrogen A21206) and 1:6250 diluted Hoechst 33342 (Molecular Probes H-21492) in 3% BSA was added to the cells, incubate at room temperature for one hour. The cells were washed three times with PBS, then image with the CellInsight CX7 High-Content Imager. The ratio of nuclear mean fluorescence intensity and cytoplasmic ring region mean fluorescence intensity was calculated. The % inhibition was normalized using DMSO as 0% inhibition and an inhibitor control as 100% inhibition. The EC50 values were calculated by fitting the % inhibition with a nonlinear four-parameter logistical equation.

Sequence of Human LATS2 catalytic domain (Q9NRM7 553-1088): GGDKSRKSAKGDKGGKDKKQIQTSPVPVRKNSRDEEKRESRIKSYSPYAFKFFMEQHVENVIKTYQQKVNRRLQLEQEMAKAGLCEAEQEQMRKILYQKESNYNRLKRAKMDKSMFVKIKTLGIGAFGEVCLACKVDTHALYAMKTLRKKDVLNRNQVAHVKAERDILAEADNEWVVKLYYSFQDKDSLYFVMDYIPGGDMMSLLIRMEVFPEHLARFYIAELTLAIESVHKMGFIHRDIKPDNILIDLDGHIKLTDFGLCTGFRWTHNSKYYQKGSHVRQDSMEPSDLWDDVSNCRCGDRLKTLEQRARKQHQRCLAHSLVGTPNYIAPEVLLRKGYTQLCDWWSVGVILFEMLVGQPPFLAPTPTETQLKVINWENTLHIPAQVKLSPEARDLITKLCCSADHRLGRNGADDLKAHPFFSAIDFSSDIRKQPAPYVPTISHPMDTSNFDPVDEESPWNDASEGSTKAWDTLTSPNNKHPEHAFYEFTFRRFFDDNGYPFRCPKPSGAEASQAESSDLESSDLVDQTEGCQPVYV
Sequence of Human LATS2 catalytic domain (Q7L9L4 whole entry partner, the tested form may be a part): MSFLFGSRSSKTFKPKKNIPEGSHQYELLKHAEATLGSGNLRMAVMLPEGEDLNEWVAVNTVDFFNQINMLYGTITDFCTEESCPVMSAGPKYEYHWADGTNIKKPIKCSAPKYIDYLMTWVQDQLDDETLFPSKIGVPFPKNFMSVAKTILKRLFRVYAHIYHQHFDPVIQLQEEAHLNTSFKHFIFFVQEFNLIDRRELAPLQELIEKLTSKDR

In turn, `CC1CC2(CCN(c3nc(-c4ccncc4)nc4cnccc34)CC2)CN1C` (stereo not drawn) [Compound 168, 4-(2,3-dimethyl-2,8-diazaspiro[4.5]decan-8-yl)-2-(pyridin-4-yl)pyrido[3,4-d]pyrimidine] registered a Ki in assay [1] of 1.62 nM. Moreover, a half-maximal effect in assay [2] (EC50) was put at 830 nM.
The corresponding values for `COC(=O)C1CC2(CCN(c3nc(-c4ccncc4)nc4cnccc34)CC2)CN1` (stereo not drawn) [Compound 171, methyl 8-(2-(pyridin-4-yl)pyrido[3,4-d]pyrimidin-4-yl)-2,8-diazaspiro[4.5]decane-3-carboxylate] are 1.95 nM and 8400 nM.
`CNC(=O)C1CC2(CCN(c3nc(-c4ccncc4)nc4cnccc34)CC2)CN1` (stereo not drawn) [Compound 172, N-methyl-8-(2-(pyridin-4-yl)pyrido[3,4-d]pyrimidin-4-yl)-2,8-diazaspiro[4.5]decane-3-carboxamide] displayed an inhibition constant Ki in assay [1] of 0.64 nM. For the same compound, a half-maximal effect in assay [2] (EC50) was put at 6500 nM.
For `Fc1cnccc1-c1nc(N2CCC3(CCNC3)CC2)c2ccncc2n1` [Compound 182, 2-(3-fluoropyridin-4-yl)-4-(2,8-diazaspiro[4.5]decan-8-yl)pyrido[3,4-d]pyrimidine] the same measures were 2.26 nM and 2700 nM.
For `Cc1[nH]ncc1-c1nc(N2CCC3(CCNC3)CC2)c2c(F)cncc2n1` [Compound 186, 5-fluoro-2-(5-methyl-1H-pyrazol-4-yl)-4-(2,8-diazaspiro[4.5]decan-8-yl)pyrido[3,4-d]pyrimidine] the same measures were 2.26 nM and > 10000 nM.
In assay [1], `OC1CNCC12CCN(c1nc(-c3ccncc3)nc3cnccc13)CC2` (stereo not drawn) [Compound 187, 8-(2-(pyridin-4-yl)pyrido[3,4-d]pyrimidin-4-yl)-2,8-diazaspiro[4.5]decan-4-ol] returned a Ki of 1.44 nM. Also, the EC50 in assay [2] was > 10000 nM.
For `CN1CCC2(CCN(c3nc(-c4ccncc4)nc4cnc(Cn5cc(Cl)cn5)cc34)CC2)C1` [Compound 189, 6-((4-chloro-1H-pyrazol-1-yl)methyl)-4-(2-methyl-2,8-diazaspiro[4.5]decan-8-yl)-2-(pyridin-4-yl)pyrido[3,4-d]pyrimidine] the same measures were 0.76 nM and 540 nM.
The corresponding values for `Cc1n[nH]cc1-c1nc(N2CCC3(CCN(C)C3)CC2)c2cc(Cn3cc(Cl)cn3)ncc2n1` [Compound 190, 6-((4-chloro-1H-pyrazol-1-yl)methyl)-2-(3-methyl-1H-pyrazol-4-yl)-4-(2-methyl-2,8-diazaspiro[4.5]decan-8-yl)pyrido[3,4-d]pyrimidine] are 0.026 nM and 110 nM.
For `OCC1CC2(CCN(c3nc(-c4ccncc4)nc4cnccc34)CC2)CN1` (stereo not drawn) [Compound 196, (8-(2-(pyridin-4-yl)pyrido[3,4-d]pyrimidin-4-yl)-2,8-diazaspiro[4.5]decan-3-yl)methanol] the same measures were 0.057 nM and 970 nM.
`Cc1n[nH]c(C)c1-c1nc(N2CCC3(CCNC3)CC2)c2ccncc2n1` [Compound 241, 2-(3,5-Dimethyl-1H-pyrazol-4-yl)-4-(2,8-diazaspiro[4.5]decan-8-yl)pyrido[3,4-d]pyrimidine] returned a Ki in assay [1] of 1.4 nM. In addition, the EC50 in assay [2] was > 10000 nM.
For `COCc1nccc2c(N3CCC4(CCNC4)CC3)nc(-c3ccncc3)nc12` [Compound 242, 8-(methoxymethyl)-2-(pyridin-4-yl)-4-(2,8-diazaspiro[4.5]decan-8-yl)pyrido[3,4-d]pyrimidine] the same measures were 0.76 nM and 2800 nM.
On to `COCc1cncc2nc(-c3ccncc3)nc(N3CCC4(CCNC4)CC3)c12` [Compound 243, 5-(Methoxymethyl)-2-(pyridin-4-yl)-4-(2,8-diazaspiro[4.5]decan-8-yl)pyrido[3,4-d]pyrimidine], for which affinity in assay [1] was put at a Ki of 1.9 nM. This compound gave an EC50 in assay [2] of 3900 nM.
The corresponding values for `CC(C)(O)C#Cc1nccc2c(N3CCC4(CCNC4)CC3)nc(-c3ccncc3)nc12` [Compound 245, 2-methyl-4-(2-(pyridin-4-yl)-4-(2,8-diazaspiro[4.5]decan-8-yl)pyrido[3,4-d]pyrimidin-8-yl)but-3-yn-2-ol] are 0.039 nM and 4800 nM.
In assay [1], `FC(F)(F)c1cncc2nc(-c3ccncc3)nc(N3CCC4(CCNC4)CC3)c12` [Compound 246, 2-(pyridin-4-yl)-4-(2,8-diazaspiro[4.5]decan-8-yl)-5-(trifluoromethyl)pyrido[3,4-d]pyrimidine] showed an inhibitory constant (Ki) of 3.5 nM. The EC50 in assay [2] came out at 3100 nM.
The corresponding values for `CN1CCC2(CCN(c3nc(-c4ccncc4)nc4c(C#CC(C)(C)O)nccc34)CC2)C1` [Compound 247, 2-methyl-4-(4-(2-methyl-2,8-diazaspiro[4.5]decan-8-yl)-2-(pyridin-4-yl)pyrido[3,4-d]pyrimidin-8-yl)but-3-yn-2-ol] are 0.039 nM and 310 nM.
The corresponding values for `CC(C)Oc1cncc2nc(-c3ccncc3)nc(N3CCC4(CCNC4)CC3)c12` [Compound 248, 5-isopropoxy-2-(pyridin-4-yl)-4-(2,8-diazaspiro[4.5]decan-8-yl)pyrido[3,4-d]pyrimidine] are 0.02 nM and 110 nM.
For `Oc1cncc2nc(-c3ccncc3)nc(N3CCC4(CCNC4)CC3)c12` [Compound 249, 2-(Pyridin-4-yl)-4-(2,8-diazaspiro[4.5]decan-8-yl)pyrido[3,4-d]pyrimidin-5-ol] the same measures were 0.27 nM and > 10000 nM.
In turn, `COc1cncc2nc(-c3ccncc3)nc(N3CCC4(CCN(CC(C)(C)O)C4)CC3)c12` [Compound 250, 1-(8-(5-methoxy-2-(pyridin-4-yl)pyrido[3,4-d]pyrimidin-4-yl)-2,8-diazaspiro[4.5]decan-2-yl)-2-methylpropan-2-ol] came in with a Ki in assay [1] of 0.033 nM. In addition, the midpoint of the response in assay [2], the EC50, lay at 100 nM.
The corresponding values for `[O-][n+]1ccc(-c2nc(N3CCC4(CCNC4)CC3)c3ccncc3n2)cc1` [Compound 251, 4-(4-(2,8-diazaspiro[4.5]decan-8-yl)pyrido[3,4-d]pyrimidin-2-yl)pyridine 1-oxide] are 3.5 nM and > 10000 nM.
For `COc1cncc2nc(-c3ccncc3)nc(N3CCC4(CCN(CC5(O)CCC5)C4)CC3)c12` [Compound 253, 1-((8-(5-methoxy-2-(pyridin-4-yl)pyrido[3,4-d]pyrimidin-4-yl)-2,8-diazaspiro[4.5]decan-2-yl)methyl)cyclobutan-1-ol] the same measures were 0.28 nM and 120 nM.
The corresponding values for `C=CCOc1cncc2nc(-c3ccncc3)nc(N3CCC4(CCNC4)CC3)c12` [Compound 254, 5-(allyloxy)-2-(pyridin-4-yl)-4-(2,8-diazaspiro[4.5]decan-8-yl)pyrido[3,4-d]pyrimidine] are 0.018 nM and 100 nM.
The compound `COc1cncc2nc(-c3ccncc3)nc(N3CCC4(CCN(CC5COC5)C4)CC3)c12` [Compound 255, 5-Methoxy-4-(2-(oxetan-3-ylmethyl)-2,8-diazaspiro[4.5]decan-8-yl)-2-(pyridin-4-yl)pyrido[3,4-d]pyrimidine] came in with a Ki in assay [1] of 0.034 nM. The compound also yielded an EC50 in assay [2] of 140 nM.
The corresponding values for `C#CCCN1CCC2(CCN(c3nc(-c4ccncc4)nc4cnccc34)CC2)C1` [Compound 256, 4-(2-(but-3-yn-1-yl)-2,8-diazaspiro[4.5]decan-8-yl)-2-(pyridin-4-yl)pyrido[3,4-d]pyrimidine] are 0.19 nM and 470 nM.
In turn, `COc1[nH]ncc1-c1nc(N2CCC3(CCNC3)CC2)c2ccncc2n1` [Compound 257, 2-(5-methoxy-1H-pyrazol-4-yl)-4-(2,8-diazaspiro[4.5]decan-8-yl)pyrido[3,4-d]pyrimidine] came in with a Ki in assay [1] of 8 nM. In assay [2], the EC50 is > 10000 nM.
For `CN(C)c1cncc2nc(-c3ccncc3)nc(N3CCC4(CCNC4)CC3)c12` [Compound 258, N,N-Dimethyl-2-(pyridin-4-yl)-4-(2,8-diazaspiro[4.5]decan-8-yl)pyrido[3,4-d]pyrimidin-5-amine] the same measures were 1.8 nM and 1900 nM.
The corresponding values for `CN1CCC2(CCN(c3nc(-c4ccncc4)nc4cncc(O)c34)CC2)C1` [Compound 259, 4-(2-methyl-2,8-diazaspiro[4.5]decan-8-yl)-2-(pyridin-4-yl)pyrido[3,4-d]pyrimidin-5-ol] are 1.6 nM and > 10000 nM.
For `c1cc(-c2nc(N3CCC4(CCNC4)CC3)c3c(OC4COC4)cncc3n2)ccn1` [Compound 260, 5-(Oxetan-3-yloxy)-2-(pyridin-4-yl)-4-(2,8-diazaspiro[4.5]decan-8-yl)pyrido[3,4-d]pyrimidine] the same measures were 0.055 nM and 4000 nM.

As a reminder, the Ki is the equilibrium dissociation constant of an inhibitor or competing ligand from its target. A lower Ki goes with higher affinity. What is called EC50 is the concentration giving half of the maximal effect. The low end stands for an effect from little substance, the high end for a need for much substance.
